Source: patent US20240109853A1 (Shanghai Yao Yuan Biotechnology Co., Ltd., priority 2020, published 2024)
Structures can show the parent of a compound that is named as a salt.

Each compound was assayed against ALPK1 (Homo sapiens (Human), UniProt Q96QP1) (assay: ALPK1 in vitro kinase assay (HTRF of TIFA phosphorylation)). Details: not given.
Assay type: biochemical

Chain of ALPK1 (Q96QP1 whole entry): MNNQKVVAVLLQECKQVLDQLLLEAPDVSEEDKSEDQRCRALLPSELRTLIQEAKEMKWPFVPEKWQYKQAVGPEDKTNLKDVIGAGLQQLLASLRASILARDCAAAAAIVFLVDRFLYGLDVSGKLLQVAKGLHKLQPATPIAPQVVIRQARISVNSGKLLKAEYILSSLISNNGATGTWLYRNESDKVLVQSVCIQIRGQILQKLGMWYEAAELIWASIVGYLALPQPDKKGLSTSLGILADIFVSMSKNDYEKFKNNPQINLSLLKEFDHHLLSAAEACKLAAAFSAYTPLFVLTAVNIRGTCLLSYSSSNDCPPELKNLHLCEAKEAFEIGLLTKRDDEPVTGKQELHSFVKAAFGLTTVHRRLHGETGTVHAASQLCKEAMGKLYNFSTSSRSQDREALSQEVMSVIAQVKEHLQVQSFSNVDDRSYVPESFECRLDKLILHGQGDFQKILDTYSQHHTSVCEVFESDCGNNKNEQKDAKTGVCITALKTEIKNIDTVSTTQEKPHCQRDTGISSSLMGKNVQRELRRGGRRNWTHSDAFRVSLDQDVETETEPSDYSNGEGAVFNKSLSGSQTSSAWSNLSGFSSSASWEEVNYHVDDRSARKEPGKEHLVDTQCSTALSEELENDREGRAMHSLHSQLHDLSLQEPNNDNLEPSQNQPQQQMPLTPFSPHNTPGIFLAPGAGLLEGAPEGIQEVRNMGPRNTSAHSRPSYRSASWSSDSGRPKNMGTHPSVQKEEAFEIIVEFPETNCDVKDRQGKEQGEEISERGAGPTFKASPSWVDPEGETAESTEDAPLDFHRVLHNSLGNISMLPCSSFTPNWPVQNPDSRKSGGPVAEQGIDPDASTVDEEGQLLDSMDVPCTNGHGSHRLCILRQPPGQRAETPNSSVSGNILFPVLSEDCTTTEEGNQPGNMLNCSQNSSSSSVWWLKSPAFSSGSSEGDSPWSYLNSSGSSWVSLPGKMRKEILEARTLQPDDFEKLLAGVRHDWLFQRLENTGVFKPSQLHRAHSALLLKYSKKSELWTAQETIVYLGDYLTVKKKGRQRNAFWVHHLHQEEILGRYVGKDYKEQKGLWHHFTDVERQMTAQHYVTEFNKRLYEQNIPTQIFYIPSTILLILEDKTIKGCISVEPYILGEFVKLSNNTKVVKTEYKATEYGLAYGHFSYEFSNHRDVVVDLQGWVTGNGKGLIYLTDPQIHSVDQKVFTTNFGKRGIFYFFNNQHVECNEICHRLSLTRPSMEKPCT

| SMILES | IC50 [nM] |
| --- | --- |
| CC1CNCCN1c1ccc(CNC(=O)Nc2nc(C(C)(C)c3ccc(Br)cc3)cs2)cc1 (stereo not shown) [Example A029, 1-(4-(2-(4-bromophenyl)propan-2-yl)thiazol-2-yl)-3-(4-(2-methylpiperazin-1-yl)benzyl)urea] | 73 |
| COc1ccc(C(C)(C)c2csc(NC(=O)NCCCC(=O)NC3CCNCC3)n2)cc1 [Example A071, 4-(3-(4-(2-(4-methoxyphenyl)propan-2-yl)thiazol-2-yl)ureido)-N-(piperidin-4-yl)butanamide] | 64 |
| COc1ccc(C(C)(C)c2csc(NC(=O)NCc3ccc(N4CCNCC4)c(C(=O)N(C)C)c3)n2)cc1 [Example A185, 5-((3-(4-(2-(4-methoxyphenyl)propan-2-yl)thiazol-2-yl)ureido)methyl)-N,N-dimethyl-2-(piperazin-1-yl)benzamide] | 56 |
| CC(C)(c1ccc(Br)cc1)c1csc(NC(=O)NCc2cnc(N3CCNC(=O)C3)c(F)c2)n1 [Example A112, 1-(4-(2-(4-bromophenyl)propan-2-yl)thiazol-2-yl)-3-((5-fluoro-6-(3-oxopiperazin-1-yl)pyridin-3-yl)methyl)urea] | 334 |
| CC(C)(c1ccc(Br)cc1)c1csc(NC(=O)NCc2cnc(N3CCC(N)C3)nc2)n1 (stereo not shown) [Example A078, 1-((2-(3-aminopyrrolidin-1-yl)pyrimidin-5-yl)methyl)-3-(4-(2-(4-bromophenyl)propan-2-yl)thiazol-2-yl)urea] | 8 |

Same assay, conditions: ALPK1 2 nM, TIFA substrate, ADP-Heptose activator, HTRF readout

| SMILES | IC50 [nM] |
| --- | --- |
| C#C[C@](C)(c1ccc(Cl)cc1)c1csc(NC(=O)c2c(F)cc(N3CCC(N)C3)cc2F)n1 (stereo in doubt) [Example B085, 4-(3-aminopyrrolidin-1-yl)-N-(4-(2-(4-chlorophenyl)but-3-yn-2-yl)thiazol-2-yl)-2,6-difluorobenzamide] | 395 |
| COc1ccc(C(C)(C)c2csc(NC(=O)c3cnc(N4CCNCC4)cn3)n2)cc1 [Example B025, N-(4-(2-(4-methoxyphenyl)propan-2-yl)thiazol-2-yl)-5-(piperazin-1-yl)pyrazine-2-carboxamide] | 298 |
| COc1ccc(C(C)(C)c2csc(NC(=O)c3ccc(NCCO)cc3)n2)cc1 [Example B060, 4-((2-hydroxyethyl)amino)-N-(4-(2-(4-methoxyphenyl)propan-2-yl)thiazol-2-yl)benzamide] | 280 |
| C#C[C@](C)(c1ccc(F)cc1)c1csc(NC(=O)c2ccc(N3CCNCC3CO)cc2)n1 (stereo in doubt) [Example B072, N-[4-[1-(4-fluorophenyl)-1-methyl-prop-2-ynyl]thiazol-2-yl]-4-[2-(hydroxymethyl)piperazin-1-yl]benzamide] | 260 |
| C#C[C@](C)(c1ccc(Cl)cc1)c1csc(NC(=O)c2c(F)cc(N3CCN(CCO)CC3)cc2F)n1 [Example C022, (R)-N-(4-(2-(4-chlorophenyl)but-3-yn-2-yl)thiazol-2-yl)-2,6-difluoro-4-(4-(2-hydroxyethyl)piperazin-1-yl)benzamide] | 188 |
| C#C[C@@](C)(c1ccc(OC)cc1)c1csc(NC(=O)c2c(F)cc(N3CCNCC3)cc2F)n1 (stereo in doubt) [Example C036, 2,6-difluoro-N-[4-[1-(4-methoxyphenyl)-1-methyl-prop-2-ynyl]thiazol-2-yl]-4-piperazin-1-yl-benzamide] | 67 |
| COc1ccc(C(C)(C)c2csc(NC(=O)c3cccc(CN4CCN(CCO)CC4)c3)n2)cc1 [Example B018, 3-((4-(2-hydroxyethyl)piperazin-1-yl)methyl)-N-(4-(2-(4-methoxyphenyl)propan-2-yl)thiazol-2-yl)benzamide] | 187 |
| COc1ccc(C(C)(C)c2csc(NC(=O)c3cccc(OCCCN4CCNCC4)c3)n2)cc1 [Example B023, N-(4-(2-(4-methoxyphenyl)propan-2-yl)thiazol-2-yl)-3-(3-(piperazin-1-yl)propoxy)benzamide] | 150 |
| COC[C@](C)(c1ccc(Cl)cc1)c1csc(NC(=O)c2c(F)cc(N3CCNCC3)cc2F)n1 [Example C024, (R)-N-(4-(2-(4-chlorophenyl)-1-methoxypropan-2-yl)thiazol-2-yl)-2,6-difluoro-4-(piperazin-1-yl)benzamide] | 130 |
| C#CC(C)(c1csc(NC(C)=O)n1)c1ccc(Br)cc1F (stereo not shown) [Example D003, N-(4-(2-(4-bromo-2-fluorophenyl)but-3-yn-2-yl)thiazol-2-yl)acetamide] | 183 |
| COc1ccc(C(C)(C)c2csc(NC(=O)c3ccc(CN4CCN(C)CC4)cc3)n2)cc1 [Example B017, N-(4-(2-(4-methoxyphenyl)propan-2-yl)thiazol-2-yl)-4-((4-methylpiperazin-1-yl)methyl)benzamide] | 148 |
| C#CC(C)(c1ccc(Cl)cc1)c1c[nH]c(NC(=O)c2c(F)cc(N3CCNCC3)cc2F)n1 (stereo not shown) [Example C052, N-(4-(2-(4-chlorophenyl)but-3-yn-2-yl)-1H-imidazol-2-yl)-2,6-difluoro-4-(piperazin-1-yl)benzamide] | 44 |

The compounds below were run on ALPK1-dependent NFκB reporter gene activation in HEK293 cells stably expressing an NF-kB reporter (G9 cells) (assay: NFκB gene reporter alkaline phosphatase assay). Details: Homo sapiens, HEK293; read-out: NFkB assay IC50.
Assay type: cell-based
From the text: In embodiments, a compound of Formula I, or a subembodiment described herein, is an inhibitor of ALPK1 as measured, for example, in an in vitro kinase assay, or an assay designed to measure the activation of downstream targets of ALPK1 pathway activation, for example NFkB transcriptional activation and the secretion of proinflammatory cytokines and chemokines, such as IL-8, which is also referred to as CXCL-8. In general, the computer program XL fit was used for data analysis, including non-linear regression analysis. The half maximal inhibitory concentration (IC50) was used as the measure of a compound's effectiveness in the assays. IC50 values were determined using the following logistic equation Y=min+(max−min)/(1+(X/IC50^−hillslpoe), where Y is the value at the compound concentration, X. The concentration response curve fitting was conducted using GraphPad Prism version 6.00 software.
An alkaline phosphatase reporter assay system was used to measure inhibition of ALPK1-dependent NFκB reporter gene activation. Briefly, HEK293 cells stably expressing an NF-kB reporter (referred to herein as “G9 cells”) were maintained in DMEM as described above. For the assay, cells were seeded into 96-well plates at a density of 10,000 cells/well in Freestyle™ 293 Expression Medium (ThermoFisher), and allowed to attach overnight. Cells were pretreated with serially diluted compounds for 30 min and then stimulated with D-glycero-D-manno-6-fluoro-heptose-1β-S-ADP. […] NFkB gene activation was detected using the chromogenic substrate, para-nitrophenyl phosphate (pNPP) according to the manufacturer's protocols (pNPP Phosphatase Assay, Beyotime Biotechnology).

| SMILES | IC50 [nM] |
| --- | --- |
| CC(C)(c1ccc(I)cc1)c1csc(NC(=O)NCc2cnc(N3CCNCC3)nc2)n1 [Example A178, 1-(4-(2-(4-iodophenyl)propan-2-yl)thiazol-2-yl)-3-((2-(piperazin-1-yl)pyrimidin-5-yl)methyl)urea] | 920 |
| C#C[C@](C)(c1ccc(Cl)cc1)c1nc(NC(=O)NCCO)sc1Cl [Example A248, (R)-1-(5-chloro-4-(2-(4-chlorophenyl)but-3-yn-2-yl)thiazol-2-yl)-3-(2-hydroxyethyl)urea] | 2730 |
| C#C[C@](C)(c1ccc(Cl)cc1)c1csc(NC(=O)N2CCc3cc(N4CCNCC4)ccc3C2)n1 (stereo in doubt) [Example A280, N-(4-(2-(4-chlorophenyl)but-3-yn-2-yl)thiazol-2-yl)-6-(piperazin-1-yl)-3,4-dihydroisoquinoline-2(1H)-carboxamide] | 2180 |
| C#C[C@@](C)(c1ccc(Cl)cc1)c1nc(NC(=O)NCCO)sc1Cl [Example A247, (S)-1-(5-chloro-4-(2-(4-chlorophenyl)but-3-yn-2-yl)thiazol-2-yl)-3-(2-hydroxyethyl)urea] | 1850 |
| C#CC(C)(c1ccc(Br)cc1)c1csc(NC(=O)NCCN2CCNCC2)n1 (stereo not shown) [Example A239, 1-(4-(2-(4-bromophenyl)but-3-yn-2-yl)thiazol-2-yl)-3-(2-(piperazin-1-yl)ethyl)urea] | 850 |
| CC(C)(c1ccc(Br)cc1)c1csc(NC(=O)NCc2ccc(N3CCNCC3)c(Br)c2)n1 [Example A097, 1-(3-bromo-4-(piperazin-1-yl)benzyl)-3-(4-(2-(4-bromophenyl)propan-2-yl)thiazol-2-yl)urea] | 1420 |
| C#C[C@@](C)(c1ccc(Cl)cc1)c1csc(NC(=O)N2CCc3cc(N4CCNCC4)ccc3C2)n1 [Example A260, (S)-N-(4-(2-(4-chlorophenyl)but-3-yn-2-yl)thiazol-2-yl)-6-(piperazin-1-yl)-3,4-dihydroisoquinoline-2(1H)-carboxamide] | 1080 |
| C#CC(C)(c1ccc(OC)cc1)c1csc(NC(=O)NC(C)c2ccc(N3CCNCC3)cc2)n1 (stereo not shown) [Example A234, 1-(4-(2-(4-methoxyphenyl)but-3-yn-2-yl)thiazol-2-yl)-3-(1-(4-(piperazin-1-yl)phenyl)ethyl)urea] | 2670 |
| COc1ccc(C(C)(CO)c2csc(NC(=O)NC(C)c3ccc(N4CCNCC4)cc3)n2)cc1 (stereo not shown) [Example A235, 1-(4-(1-hydroxy-2-(4-methoxyphenyl)propan-2-yl)thiazol-2-yl)-3-(1-(4-(piperazin-1-yl)phenyl)ethyl)urea] | 27000 |
| CC(C)(c1ccc(Br)cc1)c1csc(NC(=O)NCc2ccc(C3CCNCC3)c(F)c2)n1 [Example A222, 1-(4-(2-(4-bromophenyl)propan-2-yl)thiazol-2-yl)-3-(3-fluoro-4-(piperidin-4-yl)benzyl)urea] | 930 |
| CC(C)(c1ccc(Br)cc1)c1csc(NC(=O)NCc2cccc(N3CCNCC3)c2)n1 [Example A005, 1-(4-(2-(4-bromophenyl)propan-2-yl)thiazol-2-yl)-3-(3-(piperazin-1-yl)benzyl)urea] | 1150 |
| COc1ccc(C(C)(C)c2csc(NC(=O)NCc3cc(F)c(C4CCNCC4)c(F)c3)n2)cc1 [Example A151, 1-(3,5-difluoro-4-(piperidin-4-yl)benzyl)-3-(4-(2-(4-methoxyphenyl)propan-2-yl)thiazol-2-yl)urea hydrochloride] | 950 |

Same assay, conditions: read-out: NFkB assay IC50

| SMILES | IC50 [nM] |
| --- | --- |
| C#C[C@@](C)(c1ccc(Cl)cc1)c1csc(NC(=O)N2CCc3cc(N4CCNCC4)ccc3C2)n1 [Example A281, N-(4-(2-(4-chlorophenyl)but-3-yn-2-yl)thiazol-2-yl)-6-(piperazin-1-l)-3,4-dihydroisoquinoline-2(1H)-carboxamide] | 860 |
| C#C[C@](C)(c1ccc(Cl)cc1)c1csc(NC(=O)NCC(C)O)n1 (stereo in doubt) [Example A318, 1-(4-(2-(4-chlorophenyl)but-3-yn-2-yl)thiazol-2-yl)-3-(2-hydroxypropyl)urea] | 2240 |
